Test results: patent publication US11684067B2, “Generation of peroxyformic acid through polyhydric alcohol formate” (priority 2014, dated 2023)
Values joined by “and” are separate entries in the source; they are usually repeats but may differ in a detail not shown here. Equal entries are not always repeated.

Key:
[1] = Physical properties (hygroscopicity, water solubility) of formate esters prepared; format: physicochemical; conditions: hexaformates: at room temperature
pseudomonas = test: Suspension test in cooling tower water samples; format: cell-based; conditions: 10 minutes
Procedure: The antimicrobial efficacy of peroxyformic acid generated through the perhydrolysis of glycerol formatted were tested against pseudomonas in cooling tower samples at both 25° C. and 37° C., along with the peroxyacetic acid (POAA) controls, and the results are summarized in Table 6 and 7 below.

[2] = tested on: Nalidixic acid resistant E. coli O157:H7; test: Reduction of E. coli on raw beef brisket, dip treatment; format: cell-based; conditions: 10 minutes dip, ambient, 220 ppm POAA / 180 ppm PFA / 50 ppm LAS per formula (Table 15)
Procedure: Nalidixic acid resistant E. coli O157:H7 was used to evaluate the efficacy in treatment with performic acid composition on raw beef brisket according to the conditions shown in Table 14.
The generation of PFA from the perhydrolysis of glycerol formates, PFA formulations, POAA formations and controls were evaluated as shown in Table 15.

[3] = tested on: Bacillus subitilisATCC 19659; test: Sporicidal activity of ester PFA versus POAA (Example 21); format: cell-based, Bacillus subtilis; conditions: 20°C, dirty
Source text: Bacillus pathogens were used to evaluate the micro efficacy of ester PFA generated according to methods of the present invention in comparison to POAA.

[4] = tested on: Aspergillus brasiliensis ATCC 16404; test: Fungicidal/yeasticidal activity of ester PFA versus POAA (Example 22); format: cell-based; conditions: 20°C, dirty
Source text: (§1) Canidia and Aspergillus pathogens were used to evaluate the micro efficacy of ester PFA generated according to methods of the present invention in comparison to POAA.

[5] = tested on: Candida albicans ATCC 10231; test: as above; format: cell-based; conditions: 20°C, dirty
Source text: as §1

[6] = tested on: Bacillus subitilisATCC 19659; test: Sporicidal activity of ester PFA versus POAA (Example 23); format: cell-based, Bacillus subtilis; conditions: 20°C, dirty
Source text: Additional Bacillus pathogens were used to evaluate the micro efficacy of ester PFA generated according to methods of the present invention in comparison to POAA.

[7] = tested on: Enterococcus hirae ATCC 10541; test: Bactericidal activity of ester PFA versus POAA, EN 1276, dirty conditions; format: cell-based; conditions: 20°C
Source text: (§2) Additional Staphylococcus, Enterococcus and Pseudomonas pathogens were used to evaluate the micro efficacy of ester PFA generated according to methods of the present invention in comparison to POAA.

[8] = tested on: Pseudomonas aeruginosa ATCC 15442; test: as above; format: cell-based; conditions: 20°C
Source text: as §2

[9] = tested on: Staphylococcus aureus ATCC 6538; test: as above; format: cell-based; conditions: 20°C
Source text: as §2

[10] = Laundry disinfection efficacy, EPA protocol on 100% cotton carriers (Table 38); format: cell-based; conditions: 42 ppm, pH 7.7, 500 ppm hard water, 40° C., 5 minute exposure, vs water control
Procedure: The microbial efficacy of peroxyformic acid was also tested following the EPA protocol on 100% cotton carriers against a water control. The test conditions were pH 7.7, 500 ppm hard water, 40° C. and 5 minute exposure time. In comparison, the performance of peracetic acid was also tested under the same conditions.

[11] = BP Cooling Water pH 8.74, 5 ppm Ester PFA / 6.13 ppm POAA, 25°C
[12] = BP Cooling Water pH 8.74, 5 ppm Ester PFA / 6.13 ppm POAA, 37°C
[13] = BP Cooling Water pH 8.74, 12.3 ppm POAA, 25°C
[14] = BP Cooling Water pH 8.74, 12.3 ppm POAA, 37°C
[15] = Peninsula Cooling Water pH 8.81, 5 ppm Ester PFA / 6.13 ppm POAA, 25°C
[16] = Peninsula Cooling Water pH 8.81, 5 ppm Ester PFA / 6.13 ppm POAA, 37°C
[17] = Peninsula Cooling Water pH 8.81, 12.3 ppm POAA, 25°C
[18] = Peninsula Cooling Water pH 8.81, 12.3 ppm POAA, 37°C
[19] = 300 ppm PFA pH 6.84 / 368 ppm POAA pH 6.73 (molar equivalent), 5 minutes
[20] = 300 ppm PFA pH 6.84 / 368 ppm POAA pH 6.73 (molar equivalent), 10 minutes
[21] = 400 ppm PFA pH 7.19 / 490 ppm POAA pH 6.78 (molar equivalent), 5 minutes
[22] = 400 ppm PFA pH 7.19 / 490 ppm POAA pH 6.78 (molar equivalent), 10 minutes
[23] = 200 ppm PFA pH 6.15 / 245 ppm POAA pH 6.56, 5 minutes
[24] = 200 ppm PFA pH 6.15 / 245 ppm POAA pH 6.56, 10 minutes
[25] = 200 ppm PFA pH 6.15 / 245 ppm POAA pH 6.56, 15 minutes
[26] = 300 ppm PFA pH 6.21 / 368 ppm POAA pH 6.63, 5 minutes
[27] = 300 ppm PFA pH 6.21 / 368 ppm POAA pH 6.63, 10 minutes
[28] = 300 ppm PFA pH 6.73 / 368 ppm POAA pH 6.88, 5 minutes
[29] = 300 ppm PFA pH 6.73 / 368 ppm POAA pH 6.88, 10 minutes
[30] = 400 ppm PFA pH 6.95 / 490 ppm POAA pH 6.65, 5 minutes
[31] = 400 ppm PFA pH 6.95 / 490 ppm POAA pH 6.65, 10 minutes
[32] = 20 ppm PFA pH 6.61 / 24.8 ppm POAA pH 6.73, 5 minutes
[33] = 30 ppm PFA pH 6.74 / 37.6 ppm POAA pH 6.90, 5 minutes
[34] = 50 ppm PFA pH 6.60 / 62.4 ppm POAA pH 6.98, 5 minutes

O=COC[C@@H](OC=O)[C@@H](OC=O)[C@H](OC=O)[C@@H](COC=O)OC=O [Mannitol Hexaformates]
solubility in water of the isolated solid [1]: marginally soluble in water

CC(=O)OO [POAA, peroxyacetic acid, reference compound]
Avg. Log10 Growth (pseudomonas; [11]): 4.10 Log10 | Log10 Reduction (pseudomonas; [11]): 1.57 Log10 | Avg. Log10 Growth (pseudomonas; [12]): 2.84 Log10 | Log10 Reduction (pseudomonas; [12]): 2.26 Log10 | Avg. Log10 Growth (pseudomonas; [13]): 3.26 Log10 | Log10 Reduction (pseudomonas; [13]): 2.41 Log10 | Avg. Log10 Growth (pseudomonas; [14]): 2.73 Log10 | Log10 Reduction (pseudomonas; [14]): 2.37 Log10 | Avg. Log10 Growth (pseudomonas; [15]): 3.81 Log10 | Log10 Reduction (pseudomonas; [15]): 1.37 Log10 | Avg. Log10 Growth (pseudomonas; [16]): 2.76 Log10 | Log10 Reduction (pseudomonas; [16]): 2.34 Log10 | Avg. Log10 Growth (pseudomonas; [17]): 3.30 Log10 | Log10 Reduction (pseudomonas; [17]): 1.88 Log10 | Avg. Log10 Growth (pseudomonas; [18]): 3.20 Log10 | Log10 Reduction (pseudomonas; [18]): 1.90 Log10 | Average Log CFU/cm2 [2]: 2.98 Log CFU/cm2 | Log reduction [2]: 1.06 Log | CFU/cm2 ([2]; single samples): 1.20E+03 CFU/cm2 and 9.00E+02 CFU/cm2 and 8.00E+02 CFU/cm2 | CFU/ml ([2]; single samples): 6.00E+02 CFU/ml and 4.50E+02 CFU/ml and 4.00E+02 CFU/ml | Log CFU/cm2 ([2]; single samples): 3.08 Log CFU/cm2 and 2.95 Log CFU/cm2 and 2.90 Log CFU/cm2 | Average CFU/mL [3, 19]: 7.50E+05 CFU/mL | Log10 Growth [3, 19]: 5.88 Log10 | Log10 Reduction [3, 19]: 0.00 Log10 | Average CFU/mL [3, 20]: 5.00E+05 CFU/mL | Log10 Growth [3, 20]: 5.70 Log10 | Log10 Reduction [3, 20]: 0.00 Log10 | Average CFU/mL [3, 21]: 8.50E+05 CFU/mL | Log10 Growth [3, 21]: 5.93 Log10 | Log10 Reduction [3, 21]: 0.00 Log10 | Average CFU/mL [3, 22]: 4.00E+05 CFU/mL | Log10 Growth [3, 22]: 5.60 Log10 | Log10 Reduction [3, 22]: 0.19 Log10 | Average CFU/mL [4, 23]: >1.65E+05 CFU/mL | Log10 Growth [4, 23]: >5.22 Log10 | Log10 Reduction [4, 23]: <0.53 Log10 | Average CFU/mL [4, 24]: >1.65E+05 CFU/mL | Log10 Growth [4, 24]: >5.22 Log10 | Log10 Reduction [4, 24]: <0.53 Log10 | Average CFU/mL [4, 25]: >1.65E+05 CFU/mL | Log10 Growth [4, 25]: >5.22 Log10 | Log10 Reduction [4, 25]: <0.53 Log10 | Average CFU/mL [4, 26]: >1.65E+05 CFU/mL | Log10 Growth [4, 26]: >5.22 Log10 | Log10 Reduction [4, 26]: <0.53 Log10 | Average CFU/mL [4, 27]: >1.65E+05 CFU/mL | Log10 Growth [4, 27]: >5.22 Log10 | Log10 Reduction [4, 27]: <0.53 Log10 | Average CFU/mL [5, 23]: <140 CFU/mL | Log10 Growth [5, 23]: <2.15 Log10 | Log10 Reduction [5, 23]: >4.14 Log10 | Average CFU/mL [5, 24]: <140 CFU/mL | Log10 Growth [5, 24]: <2.15 Log10 | Log10 Reduction [5, 24]: >4.14 Log10 | Average CFU/mL [5, 25]: <140 CFU/mL | Log10 Growth [5, 25]: <2.15 Log10 | Log10 Reduction [5, 25]: >4.14 Log10 | Average CFU/mL [5, 26]: <140 CFU/mL | Log10 Growth [5, 26]: <2.15 Log10 | Log10 Reduction [5, 26]: >4.14 Log10 | Average CFU/mL [5, 27]: <140 CFU/mL | Log10 Growth [5, 27]: <2.15 Log10 | Log10 Reduction [5, 27]: >4.14 Log10 | Average CFU/mL [6, 28]: >3.0E+06 CFU/mL | Log10 Growth [6, 28]: >6.48 Log10 | Log10 Reduction [6, 28]: <1.26 Log10 | Average CFU/mL [6, 29]: >3.0E+05 CFU/mL | Log10 Growth [6, 29]: >5.48 Log10 | Log10 Reduction [6, 29]: <2.26 Log10 | Average CFU/mL [6, 30]: >3.0E+06 CFU/mL | Log10 Growth [6, 30]: >6.48 Log10 | Log10 Reduction [6, 30]: <1.26 Log10 | Average CFU/mL [6, 31]: >3.0E+05 CFU/mL | Log10 Growth [6, 31]: >5.48 Log10 | Log10 Reduction [6, 31]: <2.26 Log10 | Average CFU/mL [7, 32]: >3.30E + 05 CFU/mL | Log10 Growth [7, 32]: >5.52 Log10 | Average CFU/mL [7, 33]: 9.25E + 03 CFU/mL | Log10 Growth [7, 33]: 3.97 Log10 | Average CFU/mL [7, 34]: <140 CFU/mL | Log10 Growth [7, 34]: <2.15 Log10 | Average CFU/mL [8, 32]: <140 CFU/mL | Log10 Growth [8, 32]: <2.15 Log10 | Average CFU/mL [8, 33]: <140 CFU/mL | Log10 Growth [8, 33]: <2.15 Log10 | Average CFU/mL [8, 34]: <140 CFU/mL | Log10 Growth [8, 34]: <2.15 Log10 | Average CFU/mL [9, 32]: 1.77E + 05 CFU/mL | Log10 Growth [9, 32]: 5.25 Log10 | Average CFU/mL [9, 33]: <140 CFU/mL | Log10 Growth [9, 33]: <2.15 Log10 | Average CFU/mL [9, 34]: <140 CFU/mL | Log10 Growth [9, 34]: <2.15 Log10 | Log reduction ([10]; Klebsiella pneumoniae ATCC 4352): 2.46 | Log reduction ([10]; Staphylococcus aureus ATCC 6538): >5.85
